System: total infarct volume
Experiment: Dose optimization of combination of simvastatin and L-arginine, infarct volume in mice
Format: in vivo
Conditions: mice injected with varying levels of simvastatin and L-arginine; predicted by statistical analysis

CCC(C)(C)C(=O)O[C@H]1C[C@@H](C)C=C2C=C[C@H](C)[C@H](CC[C@@H]3C[C@@H](O)CC(=O)O3)[C@H]21 [simvastatin]
optimal range of the combination: 1.2 to 1.4 mg/kg

— patent US20080145424A1, “Sustained release L-arginine formulations and methods of manufacture and use” (Enos Phramaceuticals, Inc., priority 2002, published 2008)
